Experiment: Multiple ascending dose study, plasma pharmacokinetics of Compound (1) and GHB
Format: in vivo, human
Protocol: The plasma concentrations of Compound (1) and GHB in plasma in healthy human subjects were measured using liquid chromatography tandem mass-spectroscopy and evaluated using PHOENIX™ WINNONLIN® version 8.1 (Pharsight Corporation, USA) and MICROSOFT® EXCEL® (Microsoft Corporation, USA).
All randomized subjects who received Compound (1), with available pharmacokinetic (PK) data and without relevant deviations interfering with the PK evaluations, were included. Subjects who received only placebo were excluded from the PK population. In addition, the PK population was used for the summaries and analyses of all PK data.
A multiple ascending dose study was undertaken to evaluate the pharmacokinetics of multiple doses of Compound (1) in 3 cohorts of healthy subjects (with 8 subjects/cohort). Within each cohort, the subjects were randomized to receive Compound (1) or placebo at a ratio of 6:2 (active: placebo) for 7 days (or up to 9 days if the cohort included a titration period).
After fasting for at least 3 hours following a standard meal, subjects were randomized on Day 1 and the first dose of study drug (either target dose or titration dose) was administered. The first cohort of subjects (Cohort 8) received the second dose administration at approximately four hours after receiving the first dose. The subsequent […] cohorts (Cohorts 9 and 10) received only one dose per day.
For the first cohort (Cohort 8), the dose used was 6.0 g divided into two equal doses four hours apart for 7 days starting from Day 4 “Dose Day 1” to Day 10 “Dose Day 7”. Subsequent Cohorts 9, 10 received a single daily dose of 4.5 g and 6.0 g during the titration period (Day 1 for Cohort 9, Day 1 and Day 2 for Cohort 10, and after a titration period for 7 days starting from Day 4 “Dose Day 1” to Day 10 “Dose Day 7”. Cohort 11 was not conducted due to API availability.

[1] = Cohort 8 (6.0 g/day divided into equal 2 doses), Dosing Day 4
[2] = Cohort 8 (6.0 g/day divided into equal 2 doses), Dosing Day 10
[3] = Cohort 9 (4.5 g/day in a single dose), Dosing Day 4
[4] = Cohort 9 (4.5 g/day in a single dose), Dosing Day 10
[5] = Cohort 10 (6.0 g/day in a single dose), Dosing Day 4

Compound: CC(C)[C@H](N)C(=O)OCCCC(=O)O [Compound (1), 4-((L-valyl)oxy)butanoic acid]
- Compound (1) CL/F, Max [1]: 597 L/h
- Compound (1) CL/F, Mean [1]: 431 L/h
- Compound (1) CL/F, Median [1]: 405 L/h
- Compound (1) CL/F, Min [1]: 315 L/h
- Compound (1) plasma AUC0-inf, Max [1]: 19.1 µg·h/mL
- Compound (1) plasma AUC0-inf, Min [1]: 10.1 µg·h/mL
- Compound (1) plasma AUC0-tlast, Max [1]: 19.0 µg·h/mL
- Compound (1) plasma AUC0-tlast, Min [1]: 10.0 µg·h/mL
- Compound (1) plasma Cmax, Max [1]: 16.7 µg/mL
- Compound (1) plasma Cmax, Min [1]: 9.6 µg/mL
- Compound (1) plasma T1/2, Max [1]: 112 min
- Compound (1) plasma T1/2, Min [1]: 13.2 min
- Compound (1) plasma Tmax, Max [1]: 4.50 h
- Compound (1) CL/F, Max [2]: 569 L/h
- Compound (1) CL/F, Mean [2]: 430 L/h
- Compound (1) CL/F, Median [2]: 430 L/h
- Compound (1) CL/F, Min [2]: 280 L/h
- Compound (1) plasma AUC0-inf, Max [2]: 21.5 µg·h/mL
- Compound (1) plasma AUC0-inf, Min [2]: 10.7 µg·h/mL
- Compound (1) plasma AUC0-tlast, Max [2]: 21.4 µg·h/mL
- Compound (1) plasma AUC0-tlast, Min [2]: 10.5 µg·h/mL
- Compound (1) plasma Cmax, Max [2]: 17.0 µg/mL
- Compound (1) plasma Cmax, Min [2]: 8.7 µg/mL
- Compound (1) plasma T1/2, Max [2]: 31.2 min
- Compound (1) plasma T1/2, Min [2]: 14.4 min
- Compound (1) plasma Tmax, Max [2]: 4.75 h
- Compound (1) CL/F, Max [3]: 406 L/h
- Compound (1) CL/F, Mean [3]: 378 L/h
- Compound (1) CL/F, Median [3]: 382 L/h
- Compound (1) CL/F, Min [3]: 338 L/h
- Compound (1) plasma AUC0-inf, Max [3]: 13.3 µg·h/mL
- Compound (1) plasma AUC0-inf, Min [3]: 11.1 µg·h/mL
- Compound (1) plasma AUC0-tlast, Max [3]: 13.2 µg·h/mL
- Compound (1) plasma AUC0-tlast, Min [3]: 8.3 µg·h/mL
- Compound (1) plasma Cmax, Max [3]: 17.8 µg/mL
- Compound (1) plasma Cmax, Min [3]: 10.5 µg/mL
- Compound (1) plasma T1/2, Max [3]: 40.8 min
- Compound (1) plasma T1/2, Min [3]: 16.8 min
- Compound (1) CL/F, Max [4]: 488 L/h
- Compound (1) CL/F, Mean [4]: 423 L/h
- Compound (1) CL/F, Median [4]: 443 L/h
- Compound (1) CL/F, Min [4]: 323 L/h
- Compound (1) plasma AUC0-inf, Max [4]: 13.9 µg·h/mL
- Compound (1) plasma AUC0-inf, Min [4]: 9.2 µg·h/mL
- Compound (1) plasma AUC0-tlast, Max [4]: 13.8 µg·h/mL
- Compound (1) plasma AUC0-tlast, Min [4]: 9.1 µg·h/mL
- Compound (1) plasma Cmax, Max [4]: 17.8 µg/mL
- Compound (1) plasma Cmax, Min [4]: 9.3 µg/mL
- Compound (1) plasma T1/2, Max [4]: 50.4 min
- Compound (1) plasma T1/2, Min [4]: 22.2 min
- Compound (1) CL/F, Max [5]: 684 L/h
- Compound (1) CL/F, Mean [5]: 390 L/h
- Compound (1) CL/F, Median [5]: 316 L/h
- Compound (1) CL/F, Min [5]: 265 L/h
- Compound (1) plasma AUC0-inf, Max [5]: 22.7 µg·h/mL
- Compound (1) plasma AUC0-inf, Min [5]: 8.8 µg·h/mL
- Compound (1) plasma AUC0-tlast, Max [5]: 22.6 µg·h/mL
- Compound (1) plasma AUC0-tlast, Min [5]: 8.7 µg·h/mL
- Compound (1) plasma Cmax, Max [5]: 28.0 µg/mL
- Compound (1) plasma Cmax, Min [5]: 10.5 µg/mL
- Compound (1) plasma T1/2, Max [5]: 30.6 min
- Compound (1) plasma T1/2, Min [5]: 20.4 min
- Compound (1) plasma Tmax, Min [5]: 19.8 min
- Compound (1) CL/F, Max (Cohort 10 (6.0 g/day in a single dose), Dosing Day 10): 575 L/h

Reference: patent publication US11896573B2, “Pharmaceutical compositions and pharmacokinetics of a gamma-hydroxybutyric acid derivative” (priority 2020, dated 2024)
